# Measured values taken from ChEMBL document CHEMBL1148869, “Synthesis and SAR studies of potent imidazopyridine anticoccidial agents” (Bioorg Med Chem Lett, 2007).
# pIC50: −log10 of the molar value.
# Experiments:
# [1] = target: cGMP-dependent protein kinase (Eimeria tenella, UniProt Q8MMZ8); assay: Inhibition of Et-PKG
# Eimeria tenella [2] = assay: Anticoccidial activity against Eimeria tenella infected Chick assessed as reduction in oocyst production at 25ppm after 7 days; assay type: functional; design: scale not given: the % may be the effect or the level left
# Eimeria acervulina [3] = assay: Anticoccidial activity against Eimeria acervulina infected Chick assessed as reduction in oocyst production at 25 ppm after 7 days; assay type: functional; design: scale not given: the % may be the effect or the level left
# Eimeria acervulina [4] = assay: Anticoccidial activity against Eimeria acervulina infected Chick assessed as reduction in oocyst production at 12.5 ppm after 7 days; assay type: functional; design: scale not given: the % may be the effect or the level left
# Eimeria tenella [5] = assay: Anticoccidial activity against Eimeria tenella infected Chick assessed as reduction in oocyst production at 12.5 ppm after 7 days; assay type: functional; design: scale not given: the % may be the effect or the level left
# Eimeria acervulina [6] = assay: Anticoccidial activity against Eimeria acervulina infected Chick assessed as reduction in oocyst production at 50 ppm after 7 days; assay type: functional; design: scale not given: the % may be the effect or the level left
# Eimeria tenella [7] = assay: Anticoccidial activity against Eimeria tenella infected Chick assessed as reduction in oocyst production at 50 ppm after 7 days; assay type: functional; design: scale not given: the % may be the effect or the level left
# Sequence of cGMP-dependent protein kinase (Q8MMZ8 whole entry): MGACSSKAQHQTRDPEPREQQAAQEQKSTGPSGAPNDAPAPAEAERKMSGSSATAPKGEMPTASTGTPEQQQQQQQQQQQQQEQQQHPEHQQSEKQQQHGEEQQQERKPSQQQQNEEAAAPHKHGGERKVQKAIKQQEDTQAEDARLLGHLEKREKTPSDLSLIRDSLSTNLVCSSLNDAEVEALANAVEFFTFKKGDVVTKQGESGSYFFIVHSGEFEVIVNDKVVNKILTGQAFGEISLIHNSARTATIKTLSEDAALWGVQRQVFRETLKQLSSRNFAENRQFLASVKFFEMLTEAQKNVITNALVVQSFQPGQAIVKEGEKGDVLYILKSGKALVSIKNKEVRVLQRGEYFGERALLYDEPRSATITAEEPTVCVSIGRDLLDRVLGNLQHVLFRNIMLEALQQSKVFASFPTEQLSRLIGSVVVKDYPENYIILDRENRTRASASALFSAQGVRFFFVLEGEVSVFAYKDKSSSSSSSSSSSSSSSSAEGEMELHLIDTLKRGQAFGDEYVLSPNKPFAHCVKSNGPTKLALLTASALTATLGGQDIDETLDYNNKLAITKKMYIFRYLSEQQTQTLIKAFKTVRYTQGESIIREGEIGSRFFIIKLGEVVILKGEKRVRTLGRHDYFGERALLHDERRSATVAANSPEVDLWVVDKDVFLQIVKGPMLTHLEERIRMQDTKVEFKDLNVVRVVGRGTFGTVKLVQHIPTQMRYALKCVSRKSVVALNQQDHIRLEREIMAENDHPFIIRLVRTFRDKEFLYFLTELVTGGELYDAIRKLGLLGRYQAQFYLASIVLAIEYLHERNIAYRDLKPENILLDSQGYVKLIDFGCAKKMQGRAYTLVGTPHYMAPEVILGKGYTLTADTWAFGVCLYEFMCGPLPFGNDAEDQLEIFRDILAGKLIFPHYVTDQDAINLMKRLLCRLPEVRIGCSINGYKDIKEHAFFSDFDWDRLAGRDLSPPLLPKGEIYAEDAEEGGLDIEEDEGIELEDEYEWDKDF
SMILES,pIC50 [1],Activity (Eimeria tenella [2]),Activity (Eimeria acervulina [3]),Activity (Eimeria acervulina [4]),Activity (Eimeria tenella [5]),Activity (Eimeria acervulina [6]),Activity (Eimeria tenella [7])
CN(C)Cc1ccn2c(-c3ccnc(NCC(C)(C)C)n3)c(-c3ccc(F)cc3)nc2c1,9.55,>80%,<50%,–,–,–,–
C[C@H](Nc1nccc(-c2c(-c3ccc(F)cc3)nc3cc(CN(C)CCCN(C)C)ccn23)n1)c1ccccc1,10.15,–,–,50%,<50%,–,–
CC(C)Nc1nccc(-c2c(-c3ccc(F)cc3)nc3cc(CN(C)C(C)C)ccn23)n1,8.89,–,–,–,–,–,–
CC(C)(C)CNc1nccc(-c2c(-c3ccc(F)cc3)nc3cc(CN4CCC4)ccn23)n1,9.35,<0%,<0%,–,–,–,–
CC(C)N(C)Cc1ccn2c(-c3ccnc(N[C@@H](C)c4ccccc4)n3)c(-c3ccc(F)cc3)nc2c1,9.96,<50%,>80%,–,–,–,–
CN(C)Cc1ccn2c(-c3ccnc(Nc4ccccc4)n3)c(-c3ccc(F)cc3)nc2c1,10.22,–,–,<50%,>80%,–,–
C[C@H](Nc1nccc(-c2c(-c3ccc(F)cc3)nc3cc(CN(C)CC(=O)N4CCC4)ccn23)n1)c1ccccc1,9.24,–,–,–,–,<50%,<50%
C[C@H](Nc1nccc(-c2c(-c3ccc(F)cc3)nc3cc(CN(C)[C@@H](C)C(=O)N(C)C)ccn23)n1)c1ccccc1,9.59,50%,50%,–,–,–,–
CCOC(=O)N1CCN(Cc2ccn3c(-c4ccnc(N[C@@H](C)c5ccccc5)n4)c(-c4ccc(F)cc4)nc3c2)CC1,8.25,–,–,–,–,<50%,<50%
CC(C)Nc1nccc(-c2c(-c3ccc(F)cc3)nc3cc(CN4CCC4)ccn23)n1,9.07,–,–,–,–,–,–
CN(C)Cc1ccn2c(-c3ccnc(NC(C)(C)C)n3)c(-c3ccc(F)cc3)nc2c1,9.51,–,–,–,–,–,–
CCN(C)Cc1ccn2c(-c3ccnc(N[C@@H](C)c4ccccc4)n3)c(-c3ccc(F)cc3)nc2c1,9.89,–,–,–,–,>80%,>80%
C[C@H](Nc1nccc(-c2c(-c3ccc(F)cc3)nc3cc(CN(C)CC4CCCO4)ccn23)n1)c1ccccc1 (stereo partly drawn),9.57,>80%,<50%,–,–,–,–
CC(C)N(C)Cc1ccn2c(-c3ccnc(NC(C)(C)C)n3)c(-c3ccc(F)cc3)nc2c1,8.55,–,–,–,–,–,–
CCN(C)Cc1ccn2c(-c3ccnc(NCC(C)(C)C)n3)c(-c3ccc(F)cc3)nc2c1,9.54,>80%,<50%,–,–,–,–
CN(C)Cc1ccn2c(-c3ccnc(NCc4ccccc4)n3)c(-c3ccc(F)cc3)nc2c1,–,>80%,>80%,–,–,–,–
CC(C)Nc1nccc(-c2c(-c3ccc(F)cc3)nc3cc(CN(C)C)ccn23)n1,9.70,>80%,>80%,–,–,–,–
C[C@H](Nc1nccc(-c2c(-c3ccc(F)cc3)nc3cc(CN(C)CCN4CCC4)ccn23)n1)c1ccccc1,10.00,–,–,–,–,<50%,>80%
C[C@H](Nc1nccc(-c2c(-c3ccc(F)cc3)nc3cc(CN(C)CCNS(C)(=O)=O)ccn23)n1)c1ccccc1,9.82,>80%,<50%,–,–,–,–
C[C@H](Nc1nccc(-c2c(-c3ccc(F)cc3)nc3cc(CN(C)CCO)ccn23)n1)c1ccccc1,9.96,>80%,<50%,–,–,–,–
CC(C)N(C)Cc1ccn2c(-c3ccnc(NCC(C)(C)C)n3)c(-c3ccc(F)cc3)nc2c1,9.22,<50%,<50%,–,–,–,–
C[C@H](Nc1nccc(-c2c(-c3ccc(F)cc3)nc3cc(CN(C)C(CO)CO)ccn23)n1)c1ccccc1,9.82,–,–,–,–,<50%,>80%
C[C@H](Nc1nccc(-c2c(-c3ccc(F)cc3)nc3cc(CN(C)CC(=O)N4CCCC4)ccn23)n1)c1ccccc1,9.41,–,–,–,–,<50%,>80%
CC(C)NCc1ccn2c(-c3ccnc(N[C@@H](C)c4ccccc4)n3)c(-c3ccc(F)cc3)nc2c1,10.30,>80%,>80%,–,–,–,–
